The record followed here is patent publication US10751304B2, “Topical and transdermal delivery of HIF-1 modulators to prevent and treat chronic wounds” (The Board of Trustees of the Leland Stanford Junior …, priority 2008, dated 2020).

For data set [1], the system named is pressure ulcers on the dorsum of aged mice. Put plainly: Murine pressure (decubitus) ulcer model in aged mice. Format: in vivo. The settings on record: n=6. The text has this: (§1) Pressure ulcers on the dorsum of aged mice (19 month, NIA) and Diabetic (Db/Db) C57Bl/6 mice (n=6 per group) where created using two ceramic magnets (12 mm diameter and 5 mm thick, and average weight of 2.4 g) that apply 50 mm Hg pressure to the skin between them (Stadler et. al. J Invest Surg. 2004 July-August; 17(4):221-7). A single ischemia/reperfusion (I/R) cycle consists of placement of magnets (ischemia) for a designated time period followed by release (reperfusion). Three ischemia-reperfusion cycles were used in each animal to initiate decubitus ulcer formation (either in 3 h or 12 h cycles). Animals were housed individually, to prevent the accidental dislocation of the magnets and to prevent tampering with the resultant ulcer.
(§2) CD31 staining was performed on paraffin embedded 5-micron wound sections (1:50, Santa Cruz Biotechnology, Santa Cruz, Calif.) diluted in blocking goat serum overnight at 4° C. […] Sections were then mounted with Vectashield plus DAPI (Vector Laboratories, Burlingame, Calif.), and analyzed using a Zeiss Axioplan 2 light-fluorescent microscope (Carl Zeiss Vision, Germany) equipped with Zeiss AxioCam HR digital imaging software (Carl Zeiss Vision). […]
We evaluated the ability of DFO to prevent pressure ulcer formation, which has been associated with HIF-1α dysfunction and diabetes, using a previously described murine pressure ulcer model. […]

The subject of another data set is VEGF. Description: VEGF ELISA of harvested wounds. To be noted: control 100 ng/ml. Format: in vivo, murine. The protocol: ELISA. Total protein was isolated from harvested wounds by homogenizing tissue in RIPA buffer. VEGF and SDF-1 levels were measured using the Quantikine murine VEGF and SDF-1 ELISA kits (R&D Systems, Minneapolis, Minn.) according to manufacturer's instructions.

For data set [2], the system named is excisional wounds of diabetic (Db/Db) mice. Put plainly: Murine excisional wound healing model, diabetic (Db/Db) mice. Format: in vivo. To be noted: topical, delivery control day 23.
Source text: Young (8 weeks, Jackson Laboratories) aged (18-24 months, National Institute of Aging aged rodent colony), and Diabetic (Db/Db) C57/BL6 mice (n=4 per group) underwent excisional wound biopsies in accordance with the Stanford University Institutional Animal Care and Use Committees. Wounds were made as previously described. Briefly, two 6-mm circular, full-thickness wounds were made on the dorsum of mice. A 12 mm diameter, 0.5 mm thick donut shaped silicone ring (Grace Bio-Labs, Bend, Oreg.) was then placed around the wounds preventing premature skin contracture. […] Wounds were dressed with a sterile occlusive dressing that was changed daily, monitored, and photographed every other day until closure. […]
as §2
Transdermal delivery of DFO accelerates murine wound healing: Given the optimal release properties and structural parameters determined above, we sought to evaluate the ability of our DFO delivery device to improve gross wound healing in diabetic mice. […]

The subject of a further data set is diabetic ulcers. Description: Murine pressure ulcer model, diabetic mice, transdermal patch. Format: in vivo. The settings on record: transdermal patch delivery; controls Day 45+.
Source text: as §1
30 μm fresh frozen sections were washed with PBS and stained with 10 μM Dihydroethidium (DHE, invitrogen) at 37 C for 30 minutes. Slides were then washed with PBS, and Vectashield with DAPI was added.
Transdermal delivery of DFO reduces ROS accumulation and ulcer formation: We have completed studies examining the ability of our DFO patch to ameliorate diabetes-associated deficits in wound healing using our pressure ulcer model. This injury model causes increased levels of ROS, as assayed using dihydroethidium (DHE) fluorescent staining.

Data set [3] in a line: DFO patch release and skin penetration (Example 4). Type of data set: in vitro ADME.

“Also recorded” adds a separate entry of the source.

In data set [1] (controls day 19), `CC(=O)N(O)CCCCCNC(=O)CCC(=O)N(O)CCCCCNC(=O)CCC(=O)N(O)CCCCCN` [deferoxamine] yielded a ulcer closure date of 17 days. The molecule further yielded a Ulcer incidence in data set [1] (pressure ulcer model, controls 100%) of 33%. Moreover, in the data set with VEGF, the “VEGF via ELISA” value came out at 200 ng/mL. The wound closure in data set [2] was 13 days. The diabetic ulcer closure in the data set on diabetic ulcers stood at 30 days. Moreover, the “DFO uptake into the skin / DFO delivery” value in data set [3] (reverse micelles destabilized using 5% DMSO, listed as DFO) was “inhibit DFO delivery; also recorded: significantly reduces the DFO uptake into the skin”. For the same molecule, in data set [3] (without an occlusive backing), the drug penetration result is on record as “very minimal drug penetration”. Also, in data set [3] (without backing membrane), the “reduction in skin penetration of DFO” value was determined as 10 fold.
